Values quoted from earlier work, collected in patent US20190321375A1, “METHOD OF ADMINISTERING A NE[…] EFFECT ELECTROENCEPHALOGRAPHIC (EEG) BURST SUPPRESSION” (MARINUS PHARMACEUTICALS, INC., priority 2016, published 2019).
Where two headings read alike, the source gives them in different places.

Experiments:
[1] = in vivo
patients = settings: induction bolus

In the case of `CC(=O)[C@H]1CC[C@H]2[C@@H]3CC[C@H]4C[C@](C)(O)CC[C@]4(C)[C@H]3CC[C@]12C` [Ganaxolone, 3α-hydroxy, 3β-methyl-5α-pregnan-20-one], the half-life (human plasma following oral administration) is given as “approximately 20 hours”, the Tmax (therapeutic blood levels are reached quickly) is given as “short” and the oral availability [1] is given as “poor oral availability”.

In the case of `CC(C)c1cccc(C(C)C)c1O` [propofol], the “entry into burst suppression” value (patients) is listed as “can enter burst suppression directly from the awake state”.

In the case of `CC(=O)[C@H]1CC[C@H]2[C@@H]3CC[C@H]4C[C@H](O)CC[C@]4(C)[C@H]3CC[C@]12C` [Allopregnanolone, 3α,5α-tetrahydroprogesterone], the half-life (human plasma) is given as 45 min and the oral availability [1] is given as “poor oral availability”.
